Results: patent publication US12391679B2, “Benzamide-substituted bicyclic imidazo- and pyrazolo-fused -pyridine, -pyrimide, and -pyridazine compounds for treatment of inflammatory diseases” (ONCO3R Therapeutics BV, priority 2019, dated 2025)
Where two headings read alike, the source gives them in different places.

Legend:
[1] = molecular target: T1, SIK1 (Homo sapiens, UniProt P57059); test: ADP-Glo kinase assay, SIK1; format: biochemical
T1 construct: purchased Carna Biosciences 02-131
In short: (§1)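 Luminescent ADP-formation read-out: enzyme–substrate mix + ATP, 120 min RT; ATP depletion 40 min RT; ADP→ATP conversion with luciferase/luciferin 30 min RT. Controls: 1% DMSO (negative), 10 μM staurosporine final (positive).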

[2] = molecular target: T2, SIK2 (Homo sapiens, UniProt Q9H0K1); test: ADP-Glo kinase assay, SIK2; format: biochemical
T2 construct: purchased ThermoFisher Scientific PV4792
T2 sequence (Q9H0K1 whole entry): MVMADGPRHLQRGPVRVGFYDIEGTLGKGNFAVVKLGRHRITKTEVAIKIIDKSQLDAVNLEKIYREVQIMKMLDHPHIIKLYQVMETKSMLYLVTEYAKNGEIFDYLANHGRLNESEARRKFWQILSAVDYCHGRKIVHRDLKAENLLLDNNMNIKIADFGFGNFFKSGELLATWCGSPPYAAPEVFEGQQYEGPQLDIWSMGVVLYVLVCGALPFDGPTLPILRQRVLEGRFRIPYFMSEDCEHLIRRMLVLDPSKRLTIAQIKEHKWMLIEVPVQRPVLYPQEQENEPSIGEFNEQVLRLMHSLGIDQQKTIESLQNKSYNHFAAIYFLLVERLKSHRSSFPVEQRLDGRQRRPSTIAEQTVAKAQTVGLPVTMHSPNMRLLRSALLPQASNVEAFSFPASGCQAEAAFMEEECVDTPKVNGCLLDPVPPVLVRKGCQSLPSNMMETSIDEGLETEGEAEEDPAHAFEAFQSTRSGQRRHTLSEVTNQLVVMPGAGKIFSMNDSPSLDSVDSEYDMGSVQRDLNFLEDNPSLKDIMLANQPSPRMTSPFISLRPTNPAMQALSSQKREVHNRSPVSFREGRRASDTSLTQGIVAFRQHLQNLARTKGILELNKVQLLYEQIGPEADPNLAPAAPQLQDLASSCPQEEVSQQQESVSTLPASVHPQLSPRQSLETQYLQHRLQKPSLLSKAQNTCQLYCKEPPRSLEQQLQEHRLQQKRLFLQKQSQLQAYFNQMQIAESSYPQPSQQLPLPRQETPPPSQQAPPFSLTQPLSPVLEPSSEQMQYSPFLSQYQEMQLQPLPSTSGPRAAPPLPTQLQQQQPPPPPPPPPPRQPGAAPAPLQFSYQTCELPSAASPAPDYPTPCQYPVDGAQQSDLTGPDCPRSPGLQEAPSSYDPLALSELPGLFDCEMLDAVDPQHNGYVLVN
In short: as §1

[3] = tested on: LPS-induced TNFα in monocyte-derived macrophages; test: MdM assay: LPS-triggered TNFα (ELISA); format: cell-based, human; conditions: human MdM, LPS 200 ng/mL, supernatant after 20 h, inhibition of TNFα, read-out: TNFα EC50
In short: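 TNFα secretion quantified by streptavidin-HRP/luminol sandwich ELISA in supernatants collected 20 h after LPS (200 ng/mL). Macrophages derived from magnetically isolated human CD14+ monocytes were used at day 10, with compound added 1 h before LPS; final DMSO 0.2%.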

[4] = ADP-Glo, AMARA 45 μM, 5 μM ATP, 120 min, average IC50

T1 sequence (P57059 whole entry): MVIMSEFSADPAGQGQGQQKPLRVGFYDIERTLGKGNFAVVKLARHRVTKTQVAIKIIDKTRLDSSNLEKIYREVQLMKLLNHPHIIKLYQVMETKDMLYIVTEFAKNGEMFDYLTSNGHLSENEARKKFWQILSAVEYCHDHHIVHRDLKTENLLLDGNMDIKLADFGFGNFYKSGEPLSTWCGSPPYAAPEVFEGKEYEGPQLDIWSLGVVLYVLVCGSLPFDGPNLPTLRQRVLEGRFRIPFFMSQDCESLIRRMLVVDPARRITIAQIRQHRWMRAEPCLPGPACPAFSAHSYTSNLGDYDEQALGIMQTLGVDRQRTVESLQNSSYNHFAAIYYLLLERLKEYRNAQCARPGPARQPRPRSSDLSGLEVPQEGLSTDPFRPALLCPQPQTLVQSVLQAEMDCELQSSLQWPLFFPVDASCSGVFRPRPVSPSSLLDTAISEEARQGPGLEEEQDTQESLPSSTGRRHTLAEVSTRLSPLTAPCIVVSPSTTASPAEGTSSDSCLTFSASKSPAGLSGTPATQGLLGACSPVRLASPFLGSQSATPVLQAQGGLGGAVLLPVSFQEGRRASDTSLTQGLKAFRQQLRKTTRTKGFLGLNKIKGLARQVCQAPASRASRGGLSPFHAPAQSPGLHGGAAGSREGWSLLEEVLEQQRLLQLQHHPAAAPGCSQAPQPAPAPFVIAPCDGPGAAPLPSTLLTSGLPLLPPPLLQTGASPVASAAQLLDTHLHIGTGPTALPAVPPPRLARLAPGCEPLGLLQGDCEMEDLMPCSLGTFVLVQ

| SMILES | IC50 [1] [nM] | IC50 [2] [nM] | EC50 ([3]; Macrophage) [nM] | IC50 [1, 4] [nM] | IC50 [2, 4] [nM] | EC50 [3] [nM] |
| --- | --- | --- | --- | --- | --- | --- |
| COc1cc(-c2cnn3cc(C4(N)CCC4)ccc23)cc(OC(F)F)c1C(=O)N[C@@H]1C[C@@H]1F [Cpd 261, 4-[6-(1-aminocyclobutyl)pyrazolo[1,5-a]pyridin-3-yl]-2-(difluoromethoxy)-N-[(1R,2S)-2-fluorocyclopropyl]-6-methoxy-benzamide] | > 500 | > 500 | 1000 to 5000 | – | – | – |
| COc1cc(-c2cnc3cc(C4(F)COC4)ccn23)cc(OC(F)F)c1C(=O)NC1CC1 [Cpd 207, N-cyclopropyl-2-(difluoromethoxy)-4-[7-(3-fluorooxetan-3-yl)imidazo[1,2-a]pyridin-3-yl]-6-methoxy-benzamide] | > 500 | 100 to 500 | 100 to 1000 | – | – | – |
| COc1cc(-c2cnc3cc([C@@](C)(O)C4CC4)ccn23)cc(OC(F)F)c1C(=O)NC1CC1 (single isomer, unassigned) [Cpd 162, N-cyclopropyl-4-[7-(1-cyclopropyl-1-hydroxy-ethyl)imidazo[1,2-a]pyridin-3-yl]-2-(difluoromethoxy)-6-methoxy-benzamide] | > 500 | > 500 | 100 to 1000 | – | – | – |
| COc1cc(-c2cnc3cc(C(C)(C)C(C)O)ccn23)cc(OC(F)F)c1C(=O)NC1CC1 (stereo not drawn) [Cpd 172, N-cyclopropyl-2-(difluoromethoxy)-4-[7-(2-hydroxy-1,1-dimethyl-propyl)imidazo[1,2-a]pyridin-3-yl]-6-methoxy-benzamide] | > 500 | > 500 | 100 to 1000 | – | – | – |
| CCOC(C)(C)c1ccn2c(-c3cc(OC)c(C(=O)NC4CC4)c(OC(F)F)c3)cnc2c1 [Cpd 128, N-cyclopropyl-2-(difluoromethoxy)-4-[7-(1-ethoxy-1-methyl-ethyl)imidazo[1,2-a]pyridin-3-yl]-6-methoxy-benzamide] | > 500 | > 500 | 100 to 1000 | – | – | – |
| COc1cc(-c2cnc3cc(C(C)(O)C(F)(F)F)ccn23)cc(OC(F)F)c1C(=O)NC1CC1 (stereo not drawn) [Cpd 129, N-cyclopropyl-2-(difluoromethoxy)-6-methoxy-4-[7-(2,2,2-trifluoro-1-hydroxy-1-methyl-ethyl)imidazo[1,2-a]pyridin-3-yl]benzamide] | > 500 | > 500 | 100 to 1000 | – | – | – |
| CC[C@](C)(O)c1ccn2c(-c3cc(OC)c(C(=O)NC4CC4)c(OC(F)F)c3)cnc2c1 (single isomer, unassigned) [Cpd 164, N-cyclopropyl-2-(difluoromethoxy)-4-[7-(1-hydroxy-1-methyl-propyl)imidazo[1,2-a]pyridin-3-yl]-6-methoxy-benzamide] | > 500 | > 500 | 100 to 1000 | – | – | – |
| COc1cc(-c2cnc3cc(C(C)(C)CO)ccn23)cc(OC(F)F)c1C(=O)NC1CC1 [Cpd 150, N-cyclopropyl-2-(difluoromethoxy)-4-[7-(2-hydroxy-1,1-dimethyl-ethyl)imidazo[1,2-a]pyridin-3-yl]-6-methoxy-benzamide] | > 500 | > 500 | 100 to 1000 | – | – | – |
| COc1cc(-c2cnc3cc(C(C)(C)C#N)ccn23)cc(OC(F)F)c1C(=O)N1CC(F)(F)C1 [Cpd 69, 2-[3-[4-(3,3-difluoroazetidine-1-carbonyl)-3-(difluoromethoxy)-5-methoxy-phenyl]imidazo[1,2-a]pyridin-7-yl]-2-methyl-propanenitrile] | > 500 | > 500 | 100 to 1000 | – | – | – |
| COc1cc(-c2cnc3cc([C@@](C)(O)C4CC4)ccn23)cc(OC(F)F)c1C(=O)NC1CC1 (single isomer, unassigned) [Cpd 163, N-cyclopropyl-4-[7-(1-cyclopropyl-1-hydroxy-ethyl)imidazo[1,2-a]pyridin-3-yl]-2-(difluoromethoxy)-6-methoxy-benzamide] | – | – | – | > 500 | > 500 | 100 to 1000 |
| COc1cc(-c2cnc3cc(C(C)(C)C#N)ccn23)cc(OC(F)F)c1C(=O)N[C@@H]1C[C@@H]1F [Cpd 79, 4-[7-(1-cyano-1-methyl-ethyl)imidazo[1,2-a]pyridin-3-yl]-2-(difluoromethoxy)-N-[(1R,2S)-2-fluorocyclopropyl]-6-methoxy-benzamide] | > 500 | 100 to 500 | 100 to 1000 | – | – | – |
| COc1cc(-c2cnc3cc(C4CCC4)c(F)cn23)cc(OC(F)F)c1C(=O)NC1CC1 [Cpd 168, 4-(7-cyclobutyl-6-fluoro-imidazo[1,2-a]pyridin-3-yl)-N-cyclopropyl-2-(difluoromethoxy)-6-methoxy-benzamide] | 100 to 500 | 10 to 100 | 100 to 1000 | – | – | – |
| COc1cc(-c2cnn3cc(C(C)(C)CN4CCOCC4)ccc23)cc(OC(F)F)c1C(=O)N[C@@H]1C[C@@H]1F [Cpd 269, 2-(difluoromethoxy)-4-[6-(1,1-dimethyl-2-morpholino-ethyl)pyrazolo[1,5-a]pyridin-3-yl]-N-[(1R,2S)-2-fluorocyclopropyl]-6-methoxy-benzamide] | > 500 | > 500 | 100 to 1000 | – | – | – |
| COc1cc(-c2cnn3cc(C4COC4)ccc23)cc(OC(F)F)c1C(=O)N[C@@H]1C[C@@H]1F [Cpd 218, 2-(difluoromethoxy)-N-[(1R,2S)-2-fluorocyclopropyl]-6-methoxy-4-[6-(oxetan-3-yl)pyrazolo[1,5-a]pyridin-3-yl]benzamide] | 100 to 500 | 10 to 100 | 100 to 1000 | – | – | – |
| COc1cc(-c2cnn3cc(C(C)(C)N)ccc23)cc(OC(F)F)c1C(=O)N[C@@H]1C[C@@H]1F [Cpd 256, 4-[6-(1-amino-1-methyl-ethyl)pyrazolo[1,5-a]pyridin-3-yl]-2-(difluoromethoxy)-N-[(1R,2S)-2-fluorocyclopropyl]-6-methoxy-benzamide] | > 500 | > 500 | 1000 to 5000 | – | – | – |
| COCC(C)(C#N)c1ccn2c(-c3cc(OC)c(C(=O)NC4CC4)c(OC(F)F)c3)cnc2c1 (stereo not drawn) [Cpd 195, 4-[7-(1-cyano-2-methoxy-1-methyl-ethyl)imidazo[1,2-a]pyridin-3-yl]-N-cyclopropyl-2-(difluoromethoxy)-6-methoxy-benzamide] | > 500 | > 500 | 100 to 1000 | – | – | – |
| CC[C@](C)(O)c1ccn2c(-c3cc(OC)c(C(=O)NC4CC4)c(OC(F)F)c3)cnc2c1 (single isomer, unassigned) [Cpd 165, N-cyclopropyl-2-(difluoromethoxy)-4-[7-(1-hydroxy-1-methyl-propyl)imidazo[1,2-a]pyridin-3-yl]-6-methoxy-benzamide] | – | – | – | > 500 | > 500 | 100 to 1000 |
| COc1cc(-c2cnn3cc(C(C)(C)C#N)ccc23)cc(OC(F)F)c1C(=O)NC1CC1 [Cpd 208, 4-[6-(1-cyano-1-methyl-ethyl)pyrazolo[1,5-a]pyridin-3-yl]-N-cyclopropyl-2-(difluoromethoxy)-6-methoxy-benzamide] | > 500 | > 500 | 100 to 1000 | – | – | – |
| COc1cc(-c2cnc3cc(C(C)(C)C#N)ccn23)cc(OC(F)F)c1C(=O)N1CC(F)C1 [Cpd 96, 2-[3-[3-(difluoromethoxy)-4-(3-fluoroazetidine-1-carbonyl)-5-methoxy-phenyl]imidazo[1,2-a]pyridin-7-yl]-2-methyl-propanenitrile] | > 500 | > 500 | 100 to 1000 | – | – | – |
| COc1cc(-c2cnc3cc(C4(O)CCC4)ccn23)cc(OC(F)F)c1C(=O)NC1CC1 [Cpd 173, N-cyclopropyl-2-(difluoromethoxy)-4-[7-(1-hydroxycyclobutyl)imidazo[1,2-a]pyridin-3-yl]-6-methoxy-benzamide] | > 500 | 100 to 500 | 100 to 1000 | – | – | – |
